In PubChem BioAssay AID380:

Target: Adenylate kinase 4, mitochondrial (Homo sapiens) (UniProt P27144)
Experiment: ligand-induced stabilization of human AK3 (AK4) – biophysical, DSF, SYPRO orange (AID 380)
Details: recombinant protein, DSF SYPRO orange thermal shift; at 5 µM; protein 1 µM; buffer 10 mM HEPES; stronger effect = higher value

Adenylate kinase 4, mitochondrial (Homo sapiens), sequence (P27144 whole entry, looked up): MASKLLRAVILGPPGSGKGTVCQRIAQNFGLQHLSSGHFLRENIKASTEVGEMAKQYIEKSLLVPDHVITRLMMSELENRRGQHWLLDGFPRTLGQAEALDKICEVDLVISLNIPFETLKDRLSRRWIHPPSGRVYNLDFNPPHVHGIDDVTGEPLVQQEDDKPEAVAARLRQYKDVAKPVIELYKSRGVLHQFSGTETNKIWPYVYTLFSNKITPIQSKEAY

Tm shift: 17.2 Celsius
Compound: Nc1ncnc2c1ncn2[C@@H]1O[C@H](COP(=O)(O)OP(=O)(O)OP(=O)(O)OP(=O)(O)OP(=O)(O)OC[C@H]2O[C@@H](n3cnc4c(N)ncnc43)[C@H](O)[C@@H]2O)[C@@H](O)[C@H]1O
